What was measured:
[1] = tested on: cancer cell lines classified IM, MSL, M; assay: PRISM screen compound sensitivity correlated with IM, MSL and M subtype of cell lines (101 gene signature); assay type: cell-based; conditions: for IM Corr test: correlation of PRISM compound sensitivity with IM subtype correlation; for M Corr test: correlation of PRISM compound sensitivity with M subtype correlation; for MSL Corr test: correlation of PRISM compound sensitivity with MSL subtype correlation
[2] = tested on: cancer cell lines, DetermaIO classes; assay: Association of PRISM compound sensitivity with DetermaIO (DTIO) cell line classes; assay type: cell-based
[3] = correlation of PRISM compound sensitivity with DTIO; test cell set
[4] = correlation of PRISM compound sensitivity with DTIO; training cell set
[5] = subtype (IM, MSL or M) with which PRISM compound sensitivity is negatively correlated, training cell set, 101 gene signature
[6] = subtype (IM, MSL or M) with which compound sensitivity is negatively correlated, training cell set (371 cell lines), 101 gene signature
[7] = correlation of PRISM compound sensitivity with DTIO (DetermaIO); test cell set (188 cell lines)
[8] = correlation of PRISM compound sensitivity with DTIO (DetermaIO); training cell set (371 cell lines)
[9] = correlation of PRISM compound sensitivity with DTIO; test cell set (188 cell lines)
[10] = correlation of PRISM compound sensitivity with DTIO; training cell set (371 cell lines)
[11] = correlation of compound sensitivity with DetermaIO (DTIO), test set
[12] = correlation of compound sensitivity with DetermaIO (DTIO), training set

Structure (SMILES) | IM Corr test ([1]; test cell set) | M Corr test ([1]; test cell set) | MSL Corr test ([1]; test cell set) | DTIO Corr test [2, 3] | DTIO Corr train [2, 4] | IM Corr test ([1]; test cell set (188 cell lines)) | M Corr test ([1]; test cell set (188 cell lines)) | MSL Corr test ([1]; test cell set (188 cell lines)) | other results
Cc1ccc(C[N+](C)(C)C)o1.[I-] [5-methylfurmethiodide] | −0.09845 | 0.06783 | 0.0844 | −0.01347 | −0.1413 | – | – | – | –
CN[C@@H]1C[C@H]2O[C@@](C)([C@@H]1OC)n1c3ccccc3c3c4c(c5c6ccccc6n2c5c31)C(=O)N[C@H]4O [7-hydroxystaurosporine] | −0.06588 | 0.06924 | 0.09088 | −0.07646 | −0.1515 | – | – | – | –
COc1ccc2nc3c(c(N)c2c1)CCCC3 [7-methoxytacrine] | −0.03879 | −0.03683 | −0.06604 | 0.06329 | −0.03204 | – | – | – | TNBCType train [1, 5]: MSL
Nc1nc2c(nc(Br)n2[C@@H]2O[C@@H]3COP(=O)(O)O[C@H]3[C@H]2O)c(=O)[nH]1 [8-bromo-cGMP] | – | – | – | −0.017 | 0.07485 | −0.00708 | −0.06633 | −0.05953 | TNBCType train [1, 6]: MSL
CCN(CC)CCCCN1c2ccccc2Oc2ccc(Cl)cc21 [10-DEBC] | – | – | – | – | – | −0.00116 | −0.0627 | −0.03074 | DTIO Corr test [2, 7]: −0.02503; DTIO Corr train [2, 8]: −0.1109
Cc1ccc(Sc2cncc3sc(C(N)=O)cc23)cc1 [A205804] | – | – | – | – | – | −0.1562 | 0.1655 | 0.07391 | DTIO Corr test [2, 7]: −0.1235; DTIO Corr train [2, 8]: −0.1273
C/C=C1/[C@H](O[C@@H]2O[C@H](CO)[C@@H](O)[C@H](O)[C@H]2O)OC=C(C(=O)OC)[C@H]1CC(=O)OCCc1ccc(O)c(O)c1 [A00842753] | – | – | – | – | – | – | – | – | TNBCType test ([1]; classification of association of compound sensitivity with IM, MSL and M cell line classes, test data set): MSL; TNBCType train ([1]; classification of association of compound sensitivity with IM, MSL and M cell line classes, training data set): MSL; DTIO Corr test ([2]; association of compound sensitivity with DetermaIO classes; test data set): 0.02172; DTIO Corr train ([2]; association of compound sensitivity with DetermaIO classes; training data set): −0.00213
C#Cc1cccc2c1c(C(=O)c1ccc(Cn3c(C)nc4cnccc43)c(F)c1)cn2C(=O)N(C)C [ABT-491] | – | – | – | – | – | −0.08486 | 0.04621 | 0.009812 | DTIO Corr test [2, 9]: −0.1207; DTIO Corr train [2, 10]: −0.1065
C/C(=N\NC(=O)[C@H]1C(=O)NC[C@@H]1c1ccccc1)c1cccc(Br)c1 [AC-264613] | – | – | – | – | – | −0.07621 | 0.0938 | 0.002402 | DTIO Corr test [2, 7]: −0.03521; DTIO Corr train [2, 8]: −0.07682
C[C@H](Nc1ncnc2[nH]cnc12)c1cc2ccc(F)cc2nc1-c1ccccn1 [AMG319] | – | – | – | 0.03283 | −0.03859 | 0.07986 | −0.1713 | −0.08814 | TNBCType train [1, 6]: MSL
C[C@H](Nc1ncnc2[nH]cnc12)c1cc2ccc(F)cc2nc1-c1ccccn1 [AMG-319] | −0.00518 | −0.1202 | −0.07748 | −0.04463 | −0.0218 | – | – | – | TNBCType train [1, 5]: MSL
CCOc1ccc(-n2c([C@@H](C)N(Cc3cccnc3)C(=O)Cc3ccc(OC(F)(F)F)cc3)nc3ncccc3c2=O)cc1 [AMG-487] | – | – | – | – | – | −0.08583 | 0.04766 | 0.1557 | DTIO Corr test [2, 7]: −0.01666; DTIO Corr train [2, 8]: −0.0821
C[C@@H]1COC(Nc2ccc3ncnc(Nc4ccc(OCc5nccs5)c(Cl)c4)c3c2)=N1 [ARRY-334543] | −0.1679 | 0.2632 | 0.3622 | −0.03109 | −0.05992 | – | – | – | DTIO Corr test [2, 11]: −0.03109; DTIO Corr train [2, 12]: −0.05992
Clc1ccc(C2(c3ccc(-c4cn[nH]c4)cc3)CCNCC2)cc1 [AT7867] | – | – | – | 0.003574 | 0.04812 | 0.04603 | −0.1665 | −0.1142 | TNBCType train [1, 6]: MSL
C=CC(=O)Nc1cc2c(Nc3ccc(F)c(Cl)c3)ncnc2cc1C#CC(C)(C)N1CCN(C)CC1.Cc1ccc(S(=O)(=O)O)cc1.Cc1ccc(S(=O)(=O)O)cc1 [AV-412] | −0.1668 | 0.2317 | 0.3378 | −0.04654 | −0.09469 | – | – | – | DTIO Corr test ([2]; correlation of compound sensitivity with DTIO; test set): −0.04654; DTIO Corr train ([2]; correlation of compound sensitivity with DTIO; training set): −0.09469
Cc1cc(Nc2nc(N[C@@H](C)c3ccc(F)cc3)c(C#N)cc2F)n[nH]1 [AZ960] | – | – | – | – | – | −0.0625 | 0.008122 | 0.05509 | DTIO Corr test [2, 7]: −0.07766; DTIO Corr train [2, 8]: −0.135
Cc1ccc(NC(=O)c2cccc(C(C)(C)C#N)c2)cc1Nc1ccc2ncn(C)c(=O)c2c1 [AZ-628] | – | – | – | 0.3247 | 0.1908 | 0.3356 | −0.2327 | 0.1133 | DTIO Corr test [2, 11]: 0.3247; DTIO Corr train [2, 12]: 0.1908; DTIO Corr test ([2]; correlation of compound sensitivity with DetermaIO (DTIO); test set): 0.3247; DTIO Corr train ([2]; correlation of compound sensitivity with DetermaIO (DTIO); training set): 0.1908
C=CCNC(=O)c1cc([N+](=O)[O-])cc2c(=O)[nH]c(Nc3ccc(Cl)c(Cl)c3)nc12 [AZ-10417808] | −0.06367 | 0.03341 | 0.2588 | −0.05539 | −0.1839 | – | – | – | –
N[C@@H]1CCCN(c2c(/C=C3\SC(=O)NC3=O)cccc2-c2ccccc2)C1 [AZD1208] | 0.06359 | −0.02916 | 0.004575 | 0.02868 | 0.03472 | – | – | – | –
C[C@@H](Oc1cc(NS(=O)(=O)N2CCC2)nc(SCc2cccc(F)c2F)n1)[C@@H](O)CO [AZD5069] | −0.07882 | 0.1362 | 0.02875 | −0.00725 | −0.151 | – | – | – | –
Cc1ncc(-c2ccnc(Nc3ccc(S(C)(=O)=O)cc3)n2)n1C(C)C [AZD5438] | – | – | – | – | – | −0.1498 | 0.0844 | 0.1271 | DTIO Corr test [2, 7]: −0.1301; DTIO Corr train [2, 8]: −0.08372
Cc1nc(C)c(-c2ccc(C3CCC(CC(=O)O)CC3)cc2)nc1C(N)=O (stereo not drawn) [AZD7687] | −0.05809 | 0.08898 | 0.08286 | −0.03167 | −0.02143 | – | – | – | –
CNC(=O)CN1CCC(Oc2cc3c(Nc4cccc(Cl)c4F)ncnc3cc2OC)CC1 [AZD8931] | – | – | – | – | – | −0.09307 | 0.2208 | 0.4034 | DTIO Corr test [2, 9]: 0.04159; DTIO Corr train [2, 10]: −0.08735
Cc1c(-c2ccnn2C)cc(C(=O)NCc2ccc(S(C)(=O)=O)cn2)c(=O)n1-c1cccc(C(F)(F)F)c1 [AZD9668] | 0.06774 | −0.1139 | 0.009005 | −0.00254 | 0.06934 | – | – | – | –
O=C(c1ccc(Cl)o1)N1CC2CNCC2C1 (stereo not drawn) [AZD 1446] | – | – | – | −0.00648 | −0.01778 | −0.01023 | −0.00226 | −0.09838 | TNBCType train [1, 6]: MSL

Source: US20250140406A1, “CLASSIFYING TUMORS AND PREDICTING RESPONSIVENESS” (Oncocyte Corporation, priority 2022, published 2025)
